From PMC12304826, “Redirecting the Peptide Cleavage Causes Protease Inactivation” (Angewandte Chemie (International Ed. in English), 2025)

Each molecule was assayed against T1, human cathepsin K (Homo sapiens, UniProt P43235) (assay: Cathepsin K inhibition assay (Cbz-Leu-Arg-AMC)). Conditions: 20 µM inhibitor, 60 min; read-out: Residual activity @ 20 µM (%) Cat K.
T1 construct: purchased Enzo Life Sciences, Lörrach, Germany
T1 sequence (P43235 115-329): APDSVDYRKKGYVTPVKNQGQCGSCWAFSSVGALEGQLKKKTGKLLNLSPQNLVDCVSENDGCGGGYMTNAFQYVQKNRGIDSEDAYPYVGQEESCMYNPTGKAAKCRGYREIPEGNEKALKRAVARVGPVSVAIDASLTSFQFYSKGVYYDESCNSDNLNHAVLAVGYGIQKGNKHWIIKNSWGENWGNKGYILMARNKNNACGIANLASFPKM
Format: biochemical
Protocol: 1. Enzyme Inhibition Assays and Kinetic Data of Inhibition of Cathepsins B, L, K and S General. Human cathepsins were assayed either fluorimetrically or spectrophotometrically as noted below. The 10 mM inhibitor solutions were prepared in DMSO. The final concentration of DMSO in all assays was 2%. Non-linear regressions were conducted with GraFit 5. Residual cathepsin activity at an inhibitor concentration of 20 µM was determined from duplicate measurements based on the product formation after 60 min. Concentration dependent measurements were performed in duplicate measurements with five different inhibitor concentrations when the residual cathepsin activity in the presence of 20 µM inhibitor was below 70% (cathepsin B) or below 50% (cathepsins cathepsins L, K, and S). Progress curves were monitored for 60 min. First-order rate constants, kobs, were determined by non-linear regression following the equation [P] = vi × (1 – exp(-kobs × t))/kobs + d, where [P] is the product concentration, vi is the initial product formation rate, kobs is the observed first-order rate constant, and d is the offset. Mean values of kobs were plotted versus corresponding inhibitor concentrations [I], and second-order rate constants of inactivation, kinac/Ki, were obtained by linear regression. The equation kobs/[I] = (kinac/Ki)/(1 + [S]/Km) was used, where [S] is the substrate concentration and Km is the Michaelis-Menten constant. Standard errors (SE) refer to the linear regression. […] Cathepsin K inhibition assay.[1] Human recombinant cathepsin K (Enzo Life Sciences, Lörrach, Germany) was assayed fluorimetrically on a Monaco Safas spectrofluorometer flx or a Fluostar OPTIMA plate reader (BMG Labtech, Ortenberg, Germany). The wavelength for excitation was 360 nm and for emission 440 nm. The reactions were followed at 25 °C. A human cathepsin K stock solution of 23 µg/mL in 50 mM sodium acetate pH 5.5, 50 mM NaCl, 0.5 mM EDTA, 5 mM DTT was diluted 1:100 with assay buffer (100 mM sodium citrate pH 5.0, 100 mM NaCl, 1 mM EDTA, 0.01% CHAPS) containing 5 mM DTT and incubated for 30 min at 37 °C. A 10 mM stock solution of the 7-amino-4-methyl-coumarin (AMC)-based fluorogenic substrate Cbz-Leu-Arg-AMC was prepared in DMSO. The final concentration of the substrate was 40 μM (= 13.3 Km). When using the spectrofluorometer, into a cuvette containing 960 μL assay buffer, inhibitor solution and DMSO in a total volume of 16 μL, and 4 μL of the substrate solution were added and mixed. The reaction was initiated by adding 20 µL of the cathepsin K solution. When using the plate reader, into a well containing 192 µL assay buffer, inhibitor solution and DMSO in a total volume of 3.2 µL and 0.8 µL of the substrate solution were added and mixed. The reaction was initiated by adding 4 µL of the cathepsin K solution.
Cathepsin S inhibition assay.[2] […]
DTT, 0.5% Triton X-100 and 30% glycerol was diluted 1:100 with a 50 mM sodium phosphate buffer pH 6.5, 50 mM NaCl, 2 mM EDTA, 0.01% Triton X-100 and 5 mM DTT and incubated for 60 min at 37 °C. A 10 mM stock solution of the fluorogenic substrate Cbz-Phe-Arg-AMC was prepared in DMSO.
The assay was performed with a final substrate concentration of 40 µM (= 0.74 Km). When using the spectrofluorometer, into a cuvette containing 920 μL assay buffer, inhibitor solution and DMSO in a total volume of 16 μL, and 4 μL of the substrate solution were added and mixed. The reaction was initiated by adding 60 μL of the cathepsin S solution. When using the plate reader, into a well containing 188 µL assay buffer, inhibitor solution and DMSO in a total volume of 3.2 µL and 0.8 µL of the substrate solution were added and mixed. The reaction was initiated by adding […] of the cathepsin S solution.
In the case of CC(C)CC(OC(=O)Nc1ccc(Cl)cc1)C(=O)N1CCC[C@H]1C(=O)O (some centres unmarked) [Compound 17], the remaining activity at 20 µM is reported as 95%. CC(C)C[C@H](NC(=O)Oc1ccc(NC(=O)Cc2ccccc2)c(Cl)c1)C(=O)N1CCC[C@H]1C(=O)O [Compound 24] was tested, and the remaining activity at 20 µM was 95%. CC(C)C[C@H](NC(=O)Oc1ccc(Cl)cc1)C(=O)N[C@@H](Cc1ccccc1)C(=O)OC(C)(C)C [Compound 2] showed a remaining activity at 20 µM of 93%. CC(C)CC(NC(=O)Oc1ccccc1)C(=O)NC(Cc1ccccc1)C(=O)O (centres unmarked) [Compound 1] gave a remaining activity at 20 µM of 77%. CC(C)C[C@H](NC(=O)Oc1ccc(Cl)cc1)C(=O)N1CCC[C@H]1C(=O)O [Compound 8] showed a remaining activity at 20 µM of 91%. For CC(C)C[C@H](NC(=O)Oc1ccc(Cl)cc1)C(=O)N[C@@H](Cc1ccccc1)C(=O)O [Compound 4], the remaining activity at 20 µM was 92%. In the case of CC(C)C[C@@H](C(=O)N1CCC[C@H]1C(=O)O)N(C)C(=O)Oc1ccc(Cl)cc1 [Compound 15], the remaining activity at 20 µM is reported as 91%. CC(C)C[C@H](NC(=O)Oc1ccc(Cl)cc1)C(=O)N1CCCC[C@H]1C(=O)O [Compound 10] was tested, and the remaining activity at 20 µM was 93%. Work on CC(C)CC(NC(=O)Oc1ccc(NC(=O)C(c2ccccc2)c2ccccc2)c(Cl)c1)C(=O)N1CCCC1C(=O)O (centres unmarked) [Compound 28] yielded a remaining activity at 20 µM of 83%. Molecule CC(C)C[C@H](NC(=O)Oc1ccc(-c2ccccc2)c(NC(=O)Cc2ccccc2)c1)C(=O)N1CCC[C@H]1C(=O)O [Compound 21] has a remaining activity at 20 µM of 73%. Work on CC(C)CC(NC(=O)Oc1ccc(Cl)c(NC(=O)C(c2ccccc2)c2ccccc2)c1)C(=O)N1CCCC1C(=O)O (centres unmarked) [Compound 22] yielded a remaining activity at 20 µM of 87%. CC(C)CC(NC(=O)Oc1ccc(NC(=O)C(c2ccccc2)c2ccccc2)c(Br)c1)C(=O)N1CCCC1C(=O)O (centres unmarked) [Compound 27] was tested, and the remaining activity at 20 µM was 90%. O=C(NC(CC1CCCCC1)C(=O)NC(Cc1ccccc1)C(=O)O)Oc1ccc(Cl)cc1 (centres unmarked) [Compound 7] was tested, and the remaining activity at 20 µM was 60%. Work on CC(C)C[C@H](NC(=O)Oc1cccc(Cl)c1)C(=O)N1CCC[C@H]1C(=O)O [Compound 23] yielded a remaining activity at 20 µM of 87%. CC(C)C[C@H](NC(=O)Nc1ccc(Cl)cc1)C(=O)N1CCC[C@H]1C(=O)O [Compound 19] gave a remaining activity at 20 µM of 92%. CC(C)C[C@H](NC(=O)Oc1ccc(NC(=O)N(Cc2ccccc2)Cc2ccccc2)c(Br)c1)C(=O)N1CCC[C@H]1C(=O)O [Compound 26] showed a remaining activity at 20 µM of 83%. CC(C)C[C@H](NC(=O)Nc1ccc(Cl)cc1)C(=O)N[C@@H](Cc1ccccc1)C(=O)O [Compound 18] gave a remaining activity at 20 µM of 87%. CC(C)C[C@H](NC(=O)Oc1ccc(Cl)c(NC(=O)Cc2ccccc2)c1)C(=O)N1CCC[C@H]1C(=O)O [Compound 20] gave a remaining activity at 20 µM of 82%. CC(C)CC(CNC(=O)Oc1ccc(Cl)cc1)C(=O)N1CCC[C@@H]1C(=O)O (some centres unmarked) [Compound 9] showed a remaining activity at 20 µM of 85%. CC(C)CC(CNC(=O)Oc1ccc(Cl)cc1)C(=O)N[C@H](Cc1ccccc1)C(=O)O (some centres unmarked) [Compound 5] showed a remaining activity at 20 µM of 70%. COC(=O)C(Cc1ccccc1)NC(=O)C(CC(C)C)NC(=O)Oc1ccc(Cl)cc1 (centres unmarked) [Compound 3] showed a remaining activity at 20 µM of at least 98%.

Same assay, conditions: five inhibitor concentrations, 60 min progress curves
With O=C(NC(CC1CCCCC1)C(=O)NC(Cc1ccccc1)C(=O)O)Oc1ccc(NC(=O)C(Cc2ccccc2)Cc2ccccc2)c(Cl)c1 (centres unmarked) [Compound 31] the “kinac/Ki ± SE Cat K” value was 23.1 M⁻¹ s⁻¹. In the case of CC(C)CC(OC(=O)Nc1ccc(Cl)cc1)C(=O)N[C@@H](Cc1ccccc1)C(=O)O (some centres unmarked) [Compound 16], the “kinac/Ki ± SE Cat K” value is reported as 185 M⁻¹ s⁻¹. For O=C(NC(CC1CCCCC1)C(=O)NC(Cc1ccccc1)C(=O)O)Oc1ccc(NC(=O)C(c2ccccc2)c2ccccc2)c(Cl)c1 (centres unmarked) [Compound 30], the “kinac/Ki ± SE Cat K” value was 3490 M⁻¹ s⁻¹.

Same assay, conditions: inhibitor not soluble at 20 µM; calculated for 20 µM from IC50 at two lower concentrations; read-out: Residual activity @ 20 µM (%) Cat K, approximated [e]
CC(C)CC(NC(=O)Oc1ccc(NC(=O)C(c2ccccc2)c2ccccc2)c(Cl)c1)C(=O)NC(Cc1ccccc1)C(=O)O (centres unmarked) [Compound 29] was tested, and the remaining activity at 20 µM was 8%. For CC(C)CC(NC(=O)Oc1ccc(NC(=O)c2ccc(-c3ccccc3)cc2)c(Cl)c1)C(=O)N1CCCC1C(=O)O (centres unmarked) [Compound 25], the remaining activity at 20 µM was 76%.
